Measurements reported in US8088936B2, “Leukotriene B4 inhibitors” (Hoffman-La Roche Inc., priority 2009, dated 2012).
pIC50: −log10 of the molar value.

test system: Human leukemia HL-60 cells endogenously expressing BLT1 and BLT2 receptors; experiment: Ca2+ flux assay for LTB4 antagonist assay (HL-60 FLIPR); assay type: cell-based; details: retinoic acid induced HL-60 cells, inhibition of LTB4-induced Ca2+ flux, 30 min preincubation; read-out: LTB4 antagonism (HL-60 FLIPR)
Procedure: Assay of Compounds for Inhibition of LTB4 Activity
Ca^2+Flux Assay for LTB4 Antagonist Assay
Human leukemia HL-60 cells endogenously expressing BLT1 and BLT2 receptors were cultured in RPMI-1640 medium supplemented with 20% fetal bovine serum, 2 mM glutamine, 100 U/ml penicillin and 100 ug/ml streptomycin.
Seventy two hours prior to experiment cells are counted using ViaCount reagent, centrifuged and resuspended at 2.0×10^5 cells/ml density with the complete growth media containing 1 μM Retinoic Acid (Sigma).
On a day of the experiment loading buffer (Calcium-3 Assay Kit, Molecular Devices) was prepared by dissolving the contents of one vial (Express Kit) into 500 ml Hank's Balanced Salt Solution containing 20 mM HEPES and 5 mM probenecid. Equal volume of the loading buffer was mixed with the replacement buffer (Hank's Balanced Salt Solution containing 20 mM HEPES, 0.05% BSA and 5 mM probenecid). Retinoic Acid induced HL-60 cells were counted using ViaCount reagent, centrifuged and resuspended at 2.0×10^6 cells/ml density with the loading buffer/replacement buffer, dispensed into 384 well black/clear microplates (Falcon) (25 μl/well) and placed in a 37° C./5% CO2 incubator for 1 hour.
During the incubation, test compounds were prepared at 6× the desired concentration in HBSS/20 mM HEPES/0.05% BSA as well as LTB4 (Biomol) was prepared at 2.2× concentration in HBSS/20 mM HEPES/0.5% BSA buffer.
After the incubation, both the cell and compound plates were brought to the FLIPR and 5 μl of the diluted compounds were transferred to the cell plates by the FLIPR. Plates were then incubated for 30 min at room temperature. After the ½ hour incubation, plates were returned to the FLIPR and 25 μl of 2.2×LTB4 was added to the cell plates. During the assay, fluorescence readings were taken simultaneously from all 384 wells of the cell plate every 1.5 seconds. Five readings were taken to establish a stable baseline, then 25 μl (LTB4) of sample was rapidly and simultaneously added to each well of the cell plate. The fluorescence was continuously monitored before, during and after sample addition for a total elapsed time of 100 seconds. Responses (increase in peak fluorescence) in each well following agonist addition was determined. The initial fluorescence reading from each well, prior to ligand stimulation, was used a zero baseline value for the data from that well. The responses are expressed as % inhibition of the neutral control (neural control: wells that received buffer plus DMSO but no test compound).

pIC50 | SMILES
8.65 | CN(C)Cc1cc(OCCCCCCc2cccc(OCCCC(=O)O)c2CCC(=O)O)cc(-c2ccc(S(C)(=O)=O)cc2)c1 [Example 38, 4-{2-(2-Carboxy-ethyl)-3-[6-(5-dimethylaminomethyl-4′-methanesulfonyl-biphenyl-3-yloxy)-hexyl]-phenoxy}-butyric acid]
9.05 | CC(=O)c1cc(OCCCCCCc2cccc(OCCCC(=O)O)c2CCC(=O)O)cc(-c2ccc3c(c2)OC(F)(F)O3)c1 [Example 69, 4-[3-{6-[3-Acetyl-5-(2,2-difluoro-benzo[1,3]dioxol-5-yl)-phenoxy]-hexyl}-2-(2-carboxy-ethyl)-phenoxy]-butyric acid]
9.66 | CCOc1cc(OCCCCCCc2cccc(OCCCC(=O)O)c2CCC(=O)O)cc(-c2ccc3c(c2)OCO3)c1 [Example 43, 4-[3-[6-(3-Benzo[1,3]dioxol-5-yl-5-ethoxy-phenoxy)-hexyl]-2-(2-carboxy-ethyl)-phenoxy]-butyric acid]
7.20 | O=C(O)CCCOc1cccc(CCCCCCOc2cc(CO)cc(-c3ccsc3)c2)c1CCC(=O)O [Example 3, 4-{2-(2-Carboxy-ethyl)-3-[6-(3-hydroxymethyl-5-thiophen-3-yl-phenoxy)-hexyl]-phenoxy}-butyric acid]
8.22 | CCOc1cc(OCCCCCCc2cccc(OCCCC(=O)O)c2CCC(=O)O)cc(-c2ccc(Cl)cc2)c1 [Example 49, 4-[2-(2-Carboxy-ethyl)-3-[6-(4′-chloro-5-ethoxy-biphenyl-3-yloxy)-hexyl]-phenoxy]-butyric acid]
7.82 | COCc1cc(OCCCCCCc2cccc(OCCCC(=O)O)c2CCC(=O)O)cc(-c2ccc(OC(F)(F)F)cc2)c1 [Example 20, 4-{2-(2-Carboxy-ethyl)-3-[6-(5-methoxymethyl-4′-trifluoromethoxy-biphenyl-3-yloxy)-hexyl]-phenoxy}-butyric acid]
8.17 | COCc1cc(OCCCCCCc2cccc(OCCCC(=O)O)c2CCC(=O)O)cc(-c2ccc(S(C)(=O)=O)cc2)c1 [Example 24, 4-[2-(2-Carboxy-ethyl)-3-[6-(4′-methanesulfonyl-5-methoxymethyl-biphenyl-3-yloxy)-hexyl]-phenoxy]-butyric acid]
8.58 | COCc1cc(OCCCCCCc2cccc(OCCCC(=O)O)c2CCC(=O)O)cc(-c2ccc(F)c(F)c2)c1 [Example 21, 4-[2-(2-Carboxy-ethyl)-3-[6-(3′,4′-difluoro-5-methoxymethyl-biphenyl-3-yloxy)-hexyl]-phenoxy]-butyric acid]
9.38 | CN(C)Cc1cc(OCCCCCCc2cccc(OCCCC(=O)O)c2CCC(=O)O)cc(-c2ccncc2)c1 [Example 40, 4-{2-(2-Carboxy-ethyl)-3-[6-(3-dimethylaminomethyl-5-pyridin-4-yl-phenoxy)-hexyl]-phenoxy}-butyric acid]
7.13 | O=C(O)CCCOc1cccc(CCCCCCOc2cc(OCc3ccccc3)cc(-c3ccccc3)c2)c1CCC(=O)O [Example 58, 4-[3-[6-(5-Benzyloxy-biphenyl-3-yloxy)-hexyl]-2-(2-carboxy-ethyl)-phenoxy]-butyric acid]
9.40 | CCC(=O)c1cc(OCCCCCCc2cccc(OCCCC(=O)O)c2CCC(=O)O)cc(-c2ccc3c(c2)OCO3)c1 [Example 71, 4-[3-[6-(3-Benzo[1,3]dioxol-5-yl-5-propionyl-phenoxy)-hexyl]-2-(2-carboxy-ethyl)-phenoxy]-butyric acid]
7.82 | N#CCc1cc(OCCCCCCc2cccc(OCCCC(=O)O)c2CCC(=O)O)cc(-c2ccsc2)c1 [Example 41, 4-{2-(2-Carboxy-ethyl)-3-[6-(3-cyanomethyl-5-thiophen-3-yl-phenoxy)-hexyl]-phenoxy}-butyric acid]
8.83 | COCc1cc(OCCCCCCc2cccc(OCCCC(=O)O)c2CCC(=O)O)cc(-c2cccc(F)c2)c1 [Example 14, 4-{2-(2-Carboxy-ethyl)-3-[6-(3′-fluoro-5-methoxymethyl-biphenyl-3-yloxy)-hexyl]-phenoxy}-butyric acid]
8.48 | CC(=O)c1cc(OCCCCCCc2cccc(OCCCC(=O)O)c2CCC(=O)O)cc(-c2ccccc2)c1 [Example 66, 4-[3-[6-(5-Acetyl-biphenyl-3-yloxy)-hexyl]-2-(2-carboxy-ethyl)-phenoxy]-butyric acid]
10.00 | CN(C)Cc1cc(OCCCCCCc2cccc(OCCCC(=O)O)c2CCC(=O)O)cc(-c2ccccc2)c1 [Example 32, 4-{2-(2-Carboxy-ethyl)-3-[6-(5-dimethylaminomethyl-biphenyl-3-yloxy)-hexyl]-phenoxy}-butyric acid]
7.61 | O=C(O)CCCOc1cccc(CCCCCCOc2cc(CO)cc(-c3ccccc3)c2)c1CCC(=O)O [Example 2, 4-{2-(2-Carboxy-ethyl)-3-[6-(5-hydroxymethyl-biphenyl-3-yloxy)-hexyl]-phenoxy}-butyric acid]
9.40 | CCOc1cc(OCCCCCCc2cccc(OCCCC(=O)O)c2CCC(=O)O)cc(-c2ccsc2)c1 [Example 45, 4-[2-(2-Carboxy-ethyl)-3-[6-(3-ethoxy-5-thiophen-3-yl-phenoxy)-hexyl]-phenoxy]-butyric acid]
7.37 | O=C(O)CCCOc1cccc(CCCCCCOc2cc(CO)cc(-c3ccc(Cl)cc3)c2)c1CCC(=O)O [Example 5, 4-{2-(2-Carboxy-ethyl)-3-[6-(4′-chloro-5-hydroxymethyl-biphenyl-3-yloxy)-hexyl]-phenoxy}-butyric acid]
8.68 | CC(=O)c1cc(OCCCCCCc2cccc(OCCCC(=O)O)c2CCC(=O)O)cc(-c2ccc3c(c2)OCCO3)c1 [Example 65]
9.80 | O=C(O)CCCOc1cccc(CCCCCCOc2cc(C(=O)C3CC3)cc(-c3ccc4c(c3)OCO4)c2)c1CCC(=O)O [Example 72, 4-[3-[6-(3-Benzo[1,3]dioxol-5-yl-5-cyclopropanecarbonyl-phenoxy)-hexyl]-2-(2-carboxy-ethyl)-phenoxy]-butyric acid]
9.51 | CC(C)C(=O)c1cc(OCCCCCCc2cccc(OCCCC(=O)O)c2CCC(=O)O)cc(-c2ccc3c(c2)OCO3)c1 [Example 70, 4-[3-[6-(3-Benzo[1,3]dioxol-5-yl-5-isobutyryl-phenoxy)-hexyl]-2-(2-carboxy-ethyl)-phenoxy]-butyric acid]
7.83 | COCc1cc(OCCCCCCc2cccc(OCCCC(=O)O)c2CCC(=O)O)cc(-c2cc(F)cc(F)c2)c1 [Example 16, 4-{2-(2-Carboxy-ethyl)-3-[6-(3′,5′-difluoro-5-methoxymethyl-biphenyl-3-yloxy)-hexyl]-phenoxy}-butyric acid]
8.13 | O=C(O)CCCOc1cccc(CCCCCCOc2cc(CO)cc(-c3ccc4c(c3)OCCO4)c2)c1CCC(=O)O [Example 6, 4-(2-(2-Carboxy-ethyl)-3-{6-[3-(2,3-dihydro-benzo[1,4]dioxin-6-yl)-5-hydroxymethylphenoxy]-hexyl}-phenoxy)-butyric acid]
7.53 | O=C(O)CCCOc1cccc(CCCCCCOc2cc(CO)cc(-c3ccc(F)cc3)c2)c1CCC(=O)O [Example 4, 4-{2-(2-Carboxy-ethyl)-3-[6-(4′-fluoro-5-hydroxymethyl-biphenyl-3-yloxy)-hexyl]-phenoxy}-butyric acid]
6.85 | COCc1cc(OCCCCCCc2cccc(OCCCC(=O)O)c2CCC(=O)O)cc(-c2cscc2C)c1 [Example 13, 4-(2-(2-Carboxy-ethyl)-3-{6-[3-methoxymethyl-5-(4-methyl-thiophen-3-yl)-phenoxy]-hexyl}-phenoxy)-butyric acid]
8.34 | O=C(O)CCCOc1cccc(CCCCCCOc2cc(OCc3ccccc3)cc(-c3ccc4c(c3)OCO4)c2)c1CCC(=O)O [Example 60, 4-[3-[6-(3-Benzo[1,3]dioxol-5-yl-5-benzyloxy-phenoxy)-hexyl]-2-(2-carboxy-ethyl)-phenoxy]-butyric acid]
8.20 | CCOCc1cc(OCCCCCCc2cccc(OCCCC(=O)O)c2CCC(=O)O)cc(-c2ccc(C(F)(F)F)cc2)c1 [Example 27, 4-{2-(2-Carboxy-ethyl)-3-[6-(5-ethoxymethyl-4′-trifluoromethyl-biphenyl-3-yloxy)-hexyl]-phenoxy}-butyric acid]
8.60 | COCc1cc(OCCCCCCc2cccc(OCCCC(=O)O)c2CCC(=O)O)cc(-c2ccc(F)cc2)c1 [Example 10, 4-{2-(2-Carboxy-ethyl)-3-[6-(4′-fluoro-5-methoxymethyl-biphenyl-3-yloxy)-hexyl]-phenoxy}-butyric acid]
8.63 | CCOc1cc(OCCCCCCc2cccc(OCCCC(=O)O)c2CCC(=O)O)cc(-c2cccc(F)c2)c1 [Example 47, 4-[2-(2-Carboxy-ethyl)-3-[6-(5-ethoxy-3′-fluoro-biphenyl-3-yloxy)-hexyl]-phenoxy]-butyric acid]
